Results reported in publication PMC8205030, “Methoxy and bromo scans on N-(5-methoxyphenyl) methoxybenzenesulphonamides reveal potent cytotoxic compounds, especially against the human breast adenocarcinoma MCF7 cell line” (Journal of Enzyme Inhibition and Medicinal Chemistry, 2021).

test system: HeLa (human cervical carcinoma) cells; assay: Cell growth assay (XTT), HeLa; assay type: cell-based; details: 72 h drug exposure, read-out: Antiproliferative activity IC50 HeLa
Description: (§1) The presence of mycoplasma was routinely checked with MycoAlert kit (Lonza-Cambrex) and only mycoplasma-free cells were used in the experiments. Tumour cell lines were kindly provided by Dr Faustino Mollinedo from Centro de Investigaciones Biológicas Margarita Salas, Madrid, Spain. To determine cell growth, cells in exponential growth phase were seeded (100 µL/well in 96-well plates) with appropriate cell concentration (1.5 × 10^4 cells/mL for MCF7, HeLa and HEK-293 and 3 × 10^4 cells/mL for HT-29) in complete DMEM or RPMI 1640 medium (see above) at 37 °C and 5% CO2 atmosphere. After 24 h incubation, to allow cells to attach to the plates, all compounds were added at 1 µM concentration (10 µL/well in 96-well plates) and the effect on the proliferation was evaluated 72 h post-treatment. Compounds showing antiproliferative effects at tested concentration were selected for IC50 calculation (50% inhibitory concentration compared to the untreated controls) from 10^−5 to 10^−10 M concentration. Nonlinear curves fitting the experimental data were carried out for each compound. […] A freshly prepared mixture solution of XTT labelling reagent with 0.02% (v/v) PMS (N-methyl-dibenzopyrazine methyl sulfate) electron coupling reagent was added to cells (50 µL/well in 96-well plates, the total volume of 160 µL/well) and were incubated during the corresponding time according to each cell line (4 h for MCF7 and HeLa and 6 h for HT-29 and HEK-293) in a humidified atmosphere (37 °C, 5% CO2). The absorbance of the formazan product generated was measured at a test wavelength of 450 nm using a multi-well plate reader (Ultra Evolution, Tecan, Männedorf, Suiza). Compounds were dissolved in DMSO and the final solvent concentrations never exceeded 0.5% (v/v). The control wells included treated cells with 0.5% (v/v) DMSO and the positive control. 10 µM verapamil was included as a control for the HT-29 cell line. Measurements were performed in triplicate, and each experiment was repeated three times.

Compound | IC50 [nM]
COc1ccc(S(=O)(=O)N(C)c2cc(OC)c(Br)c(OC)c2)cc1 [Compound 8a, N-(4-bromo-3,5-dimethoxyphenyl)-4-methoxy-N-methylbenzenesulphonamide] | 497
CCN(c1cc(OC)c(Br)c(OC)c1)S(=O)(=O)c1ccc(OC)cc1 [Compound 9a, N-(4-bromo-3,5-dimethoxyphenyl)-N-ethyl-4-methoxybenzenesulphonamide] | 417
COc1ccc(S(=O)(=O)N(Cc2ccccc2)c2cc(OC)c(Br)c(OC)c2)cc1 [Compound 10a, N-benzyl-N-(4-bromo-3,5-dimethoxyphenyl)-4-methoxybenzenesulphonamide] | 310
COc1ccc(S(=O)(=O)N(Cc2ccccc2)c2cc(OC)cc(OC)c2Br)cc1 [Compound 10b, N-benzyl-N-(2-bromo-3,5-dimethoxyphenyl)-4-methoxybenzenesulphonamide] | > 1000

Results, then the molecule that gave them:

IC50 [nM] | Compound
> 1000 | COc1ccc(S(=O)(=O)N(Cc2ccccc2)c2cc(OC)c(Br)c(OC)c2Br)cc1 [Compound 10c, N-benzyl-N-(2,4-dibromo-3,5-dimethoxyphenyl)-4-methoxybenzenesulphonamide]
577 | CCOC(=O)CN(c1cc(OC)c(Br)cc1OC)S(=O)(=O)c1ccc(OC)cc1 [Compound 26, Ethyl N-(4-bromo-2,5-dimethoxyphenyl)-N-((4-methoxyphenyl)sulphonyl)glycinate]
377 | CCOC(=O)N(c1cc(OC)c(Br)cc1OC)S(=O)(=O)c1ccc(OC)cc1 [Compound 27, Ethyl (4-bromo-2,5-dimethoxyphenyl)((4-methoxyphenyl)sulphonyl)carbamate]
495 | COc1ccc(S(=O)(=O)N(CC2CO2)c2cc(OC)c(Br)cc2OC)cc1 (stereo not shown) [Compound 28, N-(4-bromo-2,5-dimethoxyphenyl)-4-methoxy-N-(oxiran-2-ylmethyl)benzenesulphonamide]
240 | COc1ccc(S(=O)(=O)Nc2cc(OC)c(OC)c(OC)c2)cc1 [TMP[41], N-(3,4,5-trimethoxyphenyl)-4-methoxyphenylsulphonamide, reference compound]

biological target: T1, microtubular protein isolated from calf brain (Bos taurus, UniProt P81947+Q6B856); assay: Inhibition of tubulin polymerisation (turbidity); assay type: biochemical; details: 10 µM compound, 1.5 mg/mL microtubular protein
T1 construct: isolated from calf brain according to the modified Shelanski method; from tissue; host or cells: calf brain
T1 sequence (Q6B856 whole entry): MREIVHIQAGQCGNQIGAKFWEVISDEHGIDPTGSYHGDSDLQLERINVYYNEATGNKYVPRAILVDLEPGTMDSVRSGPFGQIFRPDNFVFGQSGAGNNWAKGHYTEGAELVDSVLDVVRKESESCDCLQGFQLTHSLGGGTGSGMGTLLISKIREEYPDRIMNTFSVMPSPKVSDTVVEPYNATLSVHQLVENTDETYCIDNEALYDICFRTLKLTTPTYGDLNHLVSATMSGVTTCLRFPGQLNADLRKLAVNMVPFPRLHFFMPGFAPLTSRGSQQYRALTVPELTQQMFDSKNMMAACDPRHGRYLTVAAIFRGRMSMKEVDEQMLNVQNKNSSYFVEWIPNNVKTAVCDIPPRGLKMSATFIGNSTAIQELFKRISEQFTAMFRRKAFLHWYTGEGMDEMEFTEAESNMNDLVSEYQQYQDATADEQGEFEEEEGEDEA
T1 sequence (P81947 whole entry): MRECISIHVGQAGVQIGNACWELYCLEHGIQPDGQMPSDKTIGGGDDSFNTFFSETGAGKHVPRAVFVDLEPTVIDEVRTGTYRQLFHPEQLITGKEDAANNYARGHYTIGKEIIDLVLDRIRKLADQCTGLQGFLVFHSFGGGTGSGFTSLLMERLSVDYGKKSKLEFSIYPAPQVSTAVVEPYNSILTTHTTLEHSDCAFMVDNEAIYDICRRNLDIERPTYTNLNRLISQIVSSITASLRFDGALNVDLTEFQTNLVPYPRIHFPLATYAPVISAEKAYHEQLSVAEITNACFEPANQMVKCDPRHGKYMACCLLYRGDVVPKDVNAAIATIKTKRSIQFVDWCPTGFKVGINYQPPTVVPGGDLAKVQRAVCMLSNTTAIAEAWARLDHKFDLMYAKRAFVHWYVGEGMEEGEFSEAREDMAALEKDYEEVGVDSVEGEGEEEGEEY
Description: Microtubular protein was isolated from calf brain according to the modified Shelanski method[23]^,[24] by two cycles of temperature-dependent assembly/disassembly and stored at −80 °C. Before each use, protein concentration is determined by Bradford method[25] taking BSA as standard. Tubulin polymerisation was monitored using a Helios α spectrophotometer by measuring the increase in turbidity at 450 nm, caused by a shift from 4 °C to 37 °C, which allows the in vitro microtubular protein to depolymerise and to polymerise, respectively. The assay was carried out in quartz cuvettes containing 1.5 mg/mL microtubular protein and the ligand (except for control cuvette with only DMSO at the same concentration) in a mixture of 0.1 M MES buffer, 1 mM EGTA, 1 mM MgCl2, 1 mM β-ME, and 1.5 mM GTP at pH 6.7 (final volume 500 µL). Cuvettes were preincubated at 20 °C for 30 min, to allow ligand binding to tubulin, and subsequently cooled on ice for 10 min. Then, the experiment starts at 4 °C to establish the initial baseline. The assembly process was initiated by a temperature shift to 37 °C and the turbidity produced by tubulin polymerisation can be measured by an absorbance increase. After reaching a stable plateau, the temperature was switched back to 4 °C to return to the initial absorption values (to confirm the reversible nature of the monitored process and to determine whether or not the microtubular protein has stabilized). The difference in amplitude between the stable plateau and the initial baseline of the curves was taken as the degree of tubulin polymerisation for each experiment. […] All compounds were tested at 10 µM concentration. IC50 values were calculated for compounds that inhibit tubulin polymerisation more than 50% at 10 µM. […] All the measurements were carried out in at least two independent experiments using microtubular protein from different preparations.

Compound | TPI % 10 µM [%]
COc1ccc(S(=O)(=O)N(C)c2cc(OC)c(Br)c(OC)c2)cc1 [Compound 8a, N-(4-bromo-3,5-dimethoxyphenyl)-4-methoxy-N-methylbenzenesulphonamide] | 10
CCN(c1cc(OC)c(Br)c(OC)c1)S(=O)(=O)c1ccc(OC)cc1 [Compound 9a, N-(4-bromo-3,5-dimethoxyphenyl)-N-ethyl-4-methoxybenzenesulphonamide] | 0
COc1ccc(S(=O)(=O)N(Cc2ccccc2)c2cc(OC)c(Br)c(OC)c2)cc1 [Compound 10a, N-benzyl-N-(4-bromo-3,5-dimethoxyphenyl)-4-methoxybenzenesulphonamide] | 0
COc1ccc(S(=O)(=O)N(Cc2ccccc2)c2cc(OC)cc(OC)c2Br)cc1 [Compound 10b, N-benzyl-N-(2-bromo-3,5-dimethoxyphenyl)-4-methoxybenzenesulphonamide] | 0

More lines, now with the values ahead:

TPI % 10 µM [%] | Compound
0 | COc1ccc(S(=O)(=O)N(Cc2ccccc2)c2cc(OC)c(Br)c(OC)c2Br)cc1 [Compound 10c, N-benzyl-N-(2,4-dibromo-3,5-dimethoxyphenyl)-4-methoxybenzenesulphonamide]
28 | CCOC(=O)CN(c1cc(OC)c(Br)cc1OC)S(=O)(=O)c1ccc(OC)cc1 [Compound 26, Ethyl N-(4-bromo-2,5-dimethoxyphenyl)-N-((4-methoxyphenyl)sulphonyl)glycinate]
44 | CCOC(=O)N(c1cc(OC)c(Br)cc1OC)S(=O)(=O)c1ccc(OC)cc1 [Compound 27, Ethyl (4-bromo-2,5-dimethoxyphenyl)((4-methoxyphenyl)sulphonyl)carbamate]
32 | COc1ccc(S(=O)(=O)N(CC2CO2)c2cc(OC)c(Br)cc2OC)cc1 (stereo not shown) [Compound 28, N-(4-bromo-2,5-dimethoxyphenyl)-4-methoxy-N-(oxiran-2-ylmethyl)benzenesulphonamide]

same assay, conditions: in vitro tubulin polymerisation inhibition; read-out: TPI IC50

Compound | IC50 [nM]
COc1ccc(S(=O)(=O)N(C)c2cc(OC)c(Br)c(OC)c2)cc1 [Compound 8a, N-(4-bromo-3,5-dimethoxyphenyl)-4-methoxy-N-methylbenzenesulphonamide] | > 10000
CCN(c1cc(OC)c(Br)c(OC)c1)S(=O)(=O)c1ccc(OC)cc1 [Compound 9a, N-(4-bromo-3,5-dimethoxyphenyl)-N-ethyl-4-methoxybenzenesulphonamide] | > 10000
COc1ccc(S(=O)(=O)N(Cc2ccccc2)c2cc(OC)c(Br)c(OC)c2)cc1 [Compound 10a, N-benzyl-N-(4-bromo-3,5-dimethoxyphenyl)-4-methoxybenzenesulphonamide] | > 10000
COc1ccc(S(=O)(=O)N(Cc2ccccc2)c2cc(OC)cc(OC)c2Br)cc1 [Compound 10b, N-benzyl-N-(2-bromo-3,5-dimethoxyphenyl)-4-methoxybenzenesulphonamide] | > 10000

Results, then the molecule that gave them:

IC50 [nM] | Compound
> 10000 | COc1ccc(S(=O)(=O)N(Cc2ccccc2)c2cc(OC)c(Br)c(OC)c2Br)cc1 [Compound 10c, N-benzyl-N-(2,4-dibromo-3,5-dimethoxyphenyl)-4-methoxybenzenesulphonamide]
> 10000 | CCOC(=O)CN(c1cc(OC)c(Br)cc1OC)S(=O)(=O)c1ccc(OC)cc1 [Compound 26, Ethyl N-(4-bromo-2,5-dimethoxyphenyl)-N-((4-methoxyphenyl)sulphonyl)glycinate]
> 10000 | CCOC(=O)N(c1cc(OC)c(Br)cc1OC)S(=O)(=O)c1ccc(OC)cc1 [Compound 27, Ethyl (4-bromo-2,5-dimethoxyphenyl)((4-methoxyphenyl)sulphonyl)carbamate]
> 10000 | COc1ccc(S(=O)(=O)N(CC2CO2)c2cc(OC)c(Br)cc2OC)cc1 (stereo not shown) [Compound 28, N-(4-bromo-2,5-dimethoxyphenyl)-4-methoxy-N-(oxiran-2-ylmethyl)benzenesulphonamide]

test system: HT-29 (human colon carcinoma) cells; assay: Cell growth assay (XTT), HT-29, alone or with verapamil; assay type: cell-based; details: 72 h, in the presence of Pgp/MDR1 inhibitor verapamil (10 µM); read-out: Antiproliferative activity IC50 HT-29 Verap
Description: as §1, with “Compounds showing antiproliferative effects at tested concentration were selected for IC50 calculation (50% inhibitory concentration compared to the untreated controls) from 10^−5 to 10^−10 M concentration.” left out

Compound | IC50 [nM]
COc1ccc(S(=O)(=O)N(C)c2cc(OC)c(Br)c(OC)c2)cc1 [Compound 8a, N-(4-bromo-3,5-dimethoxyphenyl)-4-methoxy-N-methylbenzenesulphonamide] | 293
COc1ccc(S(=O)(=O)N(Cc2ccccc2)c2cc(OC)c(Br)c(OC)c2)cc1 [Compound 10a, N-benzyl-N-(4-bromo-3,5-dimethoxyphenyl)-4-methoxybenzenesulphonamide] | 533

Next, values leading:

IC50 [nM] | Compound
867 | CCOC(=O)CN(c1cc(OC)c(Br)cc1OC)S(=O)(=O)c1ccc(OC)cc1 [Compound 26, Ethyl N-(4-bromo-2,5-dimethoxyphenyl)-N-((4-methoxyphenyl)sulphonyl)glycinate]
170 | CCOC(=O)N(c1cc(OC)c(Br)cc1OC)S(=O)(=O)c1ccc(OC)cc1 [Compound 27, Ethyl (4-bromo-2,5-dimethoxyphenyl)((4-methoxyphenyl)sulphonyl)carbamate]
975 | COc1ccc(S(=O)(=O)Nc2cc(OC)c(OC)c(OC)c2)cc1 [TMP[41], N-(3,4,5-trimethoxyphenyl)-4-methoxyphenylsulphonamide, reference compound]

same assay, conditions: Homo sapiens, HT-29; 72 h drug exposure, XTT; read-out: Antiproliferative activity IC50 HT-29

Compound | IC50 [nM]
COc1ccc(S(=O)(=O)N(C)c2cc(OC)c(Br)c(OC)c2)cc1 [Compound 8a, N-(4-bromo-3,5-dimethoxyphenyl)-4-methoxy-N-methylbenzenesulphonamide] | 495
CCN(c1cc(OC)c(Br)c(OC)c1)S(=O)(=O)c1ccc(OC)cc1 [Compound 9a, N-(4-bromo-3,5-dimethoxyphenyl)-N-ethyl-4-methoxybenzenesulphonamide] | 610
COc1ccc(S(=O)(=O)N(Cc2ccccc2)c2cc(OC)c(Br)c(OC)c2)cc1 [Compound 10a, N-benzyl-N-(4-bromo-3,5-dimethoxyphenyl)-4-methoxybenzenesulphonamide] | 450
COc1ccc(S(=O)(=O)N(Cc2ccccc2)c2cc(OC)cc(OC)c2Br)cc1 [Compound 10b, N-benzyl-N-(2-bromo-3,5-dimethoxyphenyl)-4-methoxybenzenesulphonamide] | > 1000

Other lines, results leading:

IC50 [nM] | Compound
> 1000 | COc1ccc(S(=O)(=O)N(Cc2ccccc2)c2cc(OC)c(Br)c(OC)c2Br)cc1 [Compound 10c, N-benzyl-N-(2,4-dibromo-3,5-dimethoxyphenyl)-4-methoxybenzenesulphonamide]
2100 | CCOC(=O)CN(c1cc(OC)c(Br)cc1OC)S(=O)(=O)c1ccc(OC)cc1 [Compound 26, Ethyl N-(4-bromo-2,5-dimethoxyphenyl)-N-((4-methoxyphenyl)sulphonyl)glycinate]
525 | CCOC(=O)N(c1cc(OC)c(Br)cc1OC)S(=O)(=O)c1ccc(OC)cc1 [Compound 27, Ethyl (4-bromo-2,5-dimethoxyphenyl)((4-methoxyphenyl)sulphonyl)carbamate]
860 | COc1ccc(S(=O)(=O)N(CC2CO2)c2cc(OC)c(Br)cc2OC)cc1 (stereo not shown) [Compound 28, N-(4-bromo-2,5-dimethoxyphenyl)-4-methoxy-N-(oxiran-2-ylmethyl)benzenesulphonamide]

same assay, conditions: without vs with verapamil 10 µM

Compound | Difference in HT-29 IC50 values from co-treatment with MDR inhibitor
CCOC(=O)N(c1cc(OC)c(Br)cc1OC)S(=O)(=O)c1ccc(OC)cc1 [Compound 27, Ethyl (4-bromo-2,5-dimethoxyphenyl)((4-methoxyphenyl)sulphonyl)carbamate] | higher than 3 fold

test system: MCF7 (human breast carcinoma) cells; assay: Cell growth assay (XTT), MCF7; assay type: cell-based; details: Homo sapiens, MCF7; 72 h drug exposure, XTT; read-out: Antiproliferative activity IC50 MCF7
Description: as §1

Compound | IC50 [nM]
COc1ccc(S(=O)(=O)N(C)c2cc(OC)c(Br)c(OC)c2)cc1 [Compound 8a, N-(4-bromo-3,5-dimethoxyphenyl)-4-methoxy-N-methylbenzenesulphonamide] | 99
COc1ccc(S(=O)(=O)N(Cc2ccccc2)c2cc(OC)c(Br)c(OC)c2)cc1 [Compound 10a, N-benzyl-N-(4-bromo-3,5-dimethoxyphenyl)-4-methoxybenzenesulphonamide] | 335
COc1ccc(S(=O)(=O)N(Cc2ccccc2)c2cc(OC)cc(OC)c2Br)cc1 [Compound 10b, N-benzyl-N-(2-bromo-3,5-dimethoxyphenyl)-4-methoxybenzenesulphonamide] | > 1000

The remaining lines, values ahead:

IC50 [nM] | Compound
> 1000 | COc1ccc(S(=O)(=O)N(Cc2ccccc2)c2cc(OC)c(Br)c(OC)c2Br)cc1 [Compound 10c, N-benzyl-N-(2,4-dibromo-3,5-dimethoxyphenyl)-4-methoxybenzenesulphonamide]
700 | CCOC(=O)CN(c1cc(OC)c(Br)cc1OC)S(=O)(=O)c1ccc(OC)cc1 [Compound 26, Ethyl N-(4-bromo-2,5-dimethoxyphenyl)-N-((4-methoxyphenyl)sulphonyl)glycinate]
220 | CCOC(=O)N(c1cc(OC)c(Br)cc1OC)S(=O)(=O)c1ccc(OC)cc1 [Compound 27, Ethyl (4-bromo-2,5-dimethoxyphenyl)((4-methoxyphenyl)sulphonyl)carbamate]

same assay, conditions: ratio of IC50 values

Compound | Fold more potent against MCF7 than against HeLa
COc1ccc(S(=O)(=O)N(C)c2cc(OC)c(Br)c(OC)c2)cc1 [Compound 8a, N-(4-bromo-3,5-dimethoxyphenyl)-4-methoxy-N-methylbenzenesulphonamide] | 4–7 fold
